Measurements taken from article PMC4047216 (European journal of pharmacology, 2014).

Legend:
[1] = system: HP-LTLC cells; experiment: MTT combination of VN/14-1 with thapsigargin, Chou-Talalay analysis; assay type: cell-based, human; settings: in combination VN/14-1 + thapsigargin
[2] = ref Saadeddin et al., 2004; cited from earlier work

Row | SMILES | DRI (dose reduction index) ([1]; 50% inhibition) | DRI (dose reduction index) ([1]; 75% inhibition) | DRI (dose reduction index) ([1]; 95% inhibition) | Oral bioavailability (F) [2]
1 | C/C=C(/C)C(=O)O[C@H]1C(C)=C2[C@H]([C@@H]1OC(=O)CCCCCCC)[C@@](C)(OC(C)=O)C[C@H](OC(=O)CCC)[C@@]1(O)[C@H]2OC(=O)[C@@]1(C)O [thapsigargin] | 11.498 | 31.584 | 172.494 | 
2 | CC1=C(/C=C/C(C)=C/C=C/C(C)=C/C(=O)O)C(C)(C)CCC1 [ATRA] |  |  |  | ~ 40%
